Source: patent publication US10487089B2, “Imaging agents and methods of identifying same” (The Trustees of the University of Pennsylvania, priority 2014, dated 2019)
Entries after “also recorded” stand apart in the source; their conditions may differ.

How the values were obtained:
[1] = Photophysical properties (absorption, emission, extinction coefficient, quantum yield); type: physicochemical
Source text: n-Butyllithium in hexanes was purchased from Acros and titrated with diphenylacetic acid, which was recrystallized from toluene. All other reagents were purchased from Sigma Aldrich and used without further purification. Solvents were purchased from either Sigma Aldrich or Fisher Scientific. Anhydrous solvents were purchased from Fisher Scientific and dried by passing through an alumina column of a solvent purification system. Silica gel (230-400 mesh) used for column chromatography was purchased from Silicycle. Thin layer chromatography plates (250 μm thickness) were purchased from Sorbent Technologies. Revered-phase column chromatography was done using a RediSep Rf Gold C18 column on a Teledyne Isco CombiFlash Rf system. High-performance liquid chromatography (HPLC) was performed on a Jasco HPLC system using a Phenomenex column (Luna 5u C18(2) 100A; 250×4.60 mm, 5 micron). UV absorption spectra were obtained on a Jasco V-650 spectrophotometer using a 1 cm path length quartz cuvette. Fluorescence emission spectra were taken on a Horiba Jobin-Yvon FluoroLog using a 1 cm path length fluorescence quartz cuvette. ^1H-NMR and ^13C-NMR were recorded on either a Bruker DMX 500 (500 MHz) or a Bruker AVII 500 (500 MHz). High-resolution mass spectrometry was performed using a Waters LCT Premier XE Mass Spectrometer (model KE 332). […] was performed using a Bruker APEX2-DUO CCD X-ray Diffractometer. Photoreactions were carried out in a Rayonet Photochemical Reactor (model RPR-100). Quantum yield was determined by serial dilution method using coumarine 153 (in ethanol, Φ=0.38) and fluorescein (in NaOH 0.1 M, Φ=0.95) as standards (Yvon, A guide to recording Fluorescence Quantum Yields, http://www.horiba.com/fileadmin/uploads/Scientific/Documents/Fluorescence/quantumyie ldstrad.pdf, accessed Jul. 13, 2014; Brouwer, 2011, Pure Appl. Chem. 83: 2213-2228)

[2] = Stability of aqueous solution under ambient light (HPLC); type: physicochemical; details: 1 mM in water, 25° C., 10 days
Method: The stability of 1 mM aqueous solution of 11-E/11-Z was assessed under ambient light conditions at 25° C. for 10 days. […] HPLC chromatograms of compounds 11-E/11-Z and 12 can be seen in FIGS. 57 and 58.

HeLa cells [3] = experiment: Confocal microscopy of stained live HeLa cells (subcellular localization, cell permeability); details: confocal microscopy
Source text: Confocal microscopy was done on a Yokogawa spinning disk inverted microscope with a 100× lens. Each batch of stained cells was imaged by exciting with a 488 nm laser while observing at 503-545 nm (the green overlay images), exciting with a 561 nm laser while observing at 583-650 nm (the red overlay images), and by DIC (the grey images) (FIG. 8).
A 444 nm excitation was required to image with compounds 2 and 3 (FIG. 18).

HeLa cells [4] = experiment: Cytotoxicity studies, Alamar Blue cell viability; type: cell-based; details: HeLa cells, 24, 48, and 72 hours; 5 μM 11-E/11-Z, 1 μM MitoTracker Red FM
Method: In a 96-well plate, HeLa cells were plated at 5,000 cells/well in culture media as described above (50 μL/well) and incubated at 37° C. in a humidified atmosphere with 5% CO2. After 24 hours, cells were treated with 11-E/11-Z (final concentration was 5 μM), MitoTracker Red FM (final concentration was 1 μM), and DMSO (vehicle control for MitoTracker). For wells treated with MitoTracker and DMSO, DMSO concentration was kept at 1%. Untreated cells were used as vehicle control for 11-E/11-Z. Final volumes were 100 μL/well. Cells were incubated at 37° C. in 5% CO2 for 24, 48, or 72 hours. Alamar Blue (10 μL) was added 2 hours prior to fluorescence measurement. Fluorescence was measured at 560 nm excitation and 590 nm emission. Vehicle control was taken as 100% cell viability.

HeLa cells [5] = experiment: Intracellular photoactivation of 11-E/11-Z to 12 in live HeLa cells; type: cell-based; details: 200 alternating 150 ms pulses, one phase exponential fit
Source text: A Leica DM4000 spinning disk confocal microscope equipped with a 100×1.4 NA oil immersion objective was used in FIGS. 3A and 3B. In FIG. 3A, two channels were used. The first channel has 444 nm excitation wavelength and 525 nm emission wavelength (emission bandpass filter, bandwidth=36 nm). The second channel has 488 nm excitation wavelength and 632 nm emission wavelength (emission bandpass filter, bandwidth=60 nm). The two channels were used alternatingly to carry out 200 150-ms pulses. In FIG. 46B, selective activation was carried out by short pulse (about 1 second) using a 405 nm laser (CrystaLaser, DL405-050-O) controlled by the iLas2 module in Metamorph. All image processing was done using ImageJ. All curve fitting was done using Prism.
By combining the observed photoreaction (FIG. 44A) and the ability to selectively label mitochondria for live cell imaging (FIG. 45A), intracellular photoactivation of 11-E/11-Z was attempted. The roughly 100 nm red-shifted absorbance and emission spectra of 12 compared to 11-E/11-Z allowed for selective excitation of individual species. […] A significant increase in the intensity of […] was achieved after 30 seconds, using 200 total scans (FIG. 46A, 46B). […] Immediately after the first activation, a bright signal was detected at the targeted region (box 1). […]

[6] = system: mito-GFP cell line (GFP localized to the outer mitochondria membrane); experiment: Colocalization with GFP-labeled mitochondria in mito-GFP HeLa cells; type: cell-based
Method: For live cell imaging, HeLa cells and HeLa cells expressing a mitochondrial outer membrane targeting domain from Listeria monocytogenes (ActA, C-terminal 47 amino acids) fused to a HaloTag-GFP construct (Ballister et al., 2014, Nat. Commun. 5: 4575) were used. Cells were cultured in a 60 mm culture dish using Life Technologies Dulbecco's Modified Eagle Medium (DMEM) media with phenol red, 10% Fetal Bovine Serum and 1% penicillin-streptomycin at 37° C. in a humidified atmosphere with 5% CO2. The cells were detached with 0.05% trypsin-EDTA and transferred to a 35 mm glass bottom poly-D-lysine coated dish 2-5 days before imaging with about 2 mL of the above-mentioned media. A 5 mM solution of 11-E/11-Z in MiliQ water and a 1 mM solution of MitoTracker Red FM in DMSO were prepared. Two microliter of each solution was mixed with 2 mL new media and added to the cells after the old media was removed. After incubation (3 hours to overnight for 11-E/11-Z and 1 hour for MitoTracker Red FM), the excess dyes were washed twice with non-phenol red DMEM before imaging. The cells were kept in 2 mL non-phenol red DMEM during imaging.
A Leica TCS SP8 confocal microscope equipped with a 63×/1.4 NA oil immersion objective lens was used in FIG. 2A, 3E, S2, S3, and S4. To selectively observe 11-E/11-Z, the excitation wavelength of 405 nm and the emission wavelength range of 620-650 were used. To selectively observe MitoTracker Red FM, the excitation wavelength of 638 nm and the emission wavelength range of 650-700 were used. To selectively observe GFP, the excitation wavelength of 488 nm and the emission wavelength range of 500-550 were used.
Photoproduct 12 is red-shifted in both absorbance and emission by approximately 100 nm while retaining a large Stokes shift of 108 nm (FIG. 44C). […]
Incubating mito-GFP cells with 11-E/11-Z allowed colocalization to be assessed (FIGS. 45A and 54).

C[n+]1cccc2c1/C(=C1\c3ccccc3Oc3cccnc31)c1ccccc1O2 (racemic) [11-E/11-Z]
Stokes shift [1]: 135 nm | Abs λmax ([1]; in water): 408 nm | Em λmax ([1]; in water): 543 nm | extinction coefficient ε ([1]; solvent: water): 11040 M⁻¹ cm⁻¹ | quantum yield Φ ([1]; solvent: water): 0.021 | stability of aqueous solution under ambient light [2]: No decomposition or photoproduct; also recorded: no evidence for decomposition or photoconversion | staining specificity / subcellular localization (HeLa cells [3]): consistent with mitochondrial uptake; also recorded: near exclusive mitochondrial localization | cytotoxicity (HeLa cells [4]): very low cytotoxicity | rate constant, 444/525 channel (HeLa cells [5]): 0.060 s⁻¹ | rate constant, 488/632 channel (HeLa cells [5]): 0.030 s⁻¹ | Manders' overlap coefficient (first) [6]: 0.98±0.01 | Manders' overlap coefficient (second) [6]: 1.00±0.00 | Spearman correlation with GFP ([6]; 80 cells): 0.88±0.02
